Measured values published in article PMC6271298, “Pharmacophore Generation from a Drug-like Core Molecule Surrounded by a Library Peptide via the 10BASEd-T on Bacteriophage T7” (Molecules, 2014).

Test system: Sal-conjugated peptide-streptavidin complex
Assay: Competitive binding assay with biotin (fluorescence polarization)
Conditions: various concentrations of biotin; 20 nM peptide (4 pmol) and 15 μM streptavidin (3 nmol); 50 mM Tris-HCl, pH 8.0, 150 mM NaCl, 1 mM TCEP-NaOH
Procedure: (B) Competitive binding assay. Biotin as a competitor was mixed with the Sal-conjugated peptide-streptavidin complex.
Fluorescence polarization was measured with a HYBRID-3000ES (Photoscience, Tokyo, Japan) equipped with appropriate filters (Ex. 480 nm and Em. 535/40 nm). The Sal-conjugated fluorescent peptide (4 pmol) was incubated with various concentrations of streptavidin, NeutrAvidin, or bovine serum albumin (BSA) in tris-buffered saline (50 mM Tris-HCl, pH 8.0, 150 mM NaCl) supplemented with 1 mM TCEP-NaOH at 30 °C. Concentration of the fluorescent peptide was determined by absorption coefficient at 495 nm. NeutrAvidin® and BSA were purchased from Thermo Scientific and Nacalai tesque, respectively. Concentrations of streptavidin and NeutrAvidin were determined by absorption coefficient at 280 nm. Concentration of BSA was determined by Bradford protein assay (Bio-Rad). Klotz plot was generated by GraphPad Prism software 6.0 (GraphPad Software, San Diego, CA, USA), and the sigmoid curve was fitted with non-linear least squares analysis to obtain the dissociation constant. […] For the competitive binding assay, various concentrations of biotin were added to the solution containing Sal-conjugated peptide-streptavidin complex (4 pmol of the peptide and 3 nmol of streptavidin; 20 nM and 15 μM, respectively). Biotin was purchased from New England Biolabs (Ipswich, MA, USA).

O=C(O)CCCC[C@@H]1SC[C@@H]2NC(=O)N[C@@H]21 [biotin]
disruption of Sal-conjugated peptide-streptavidin interaction by biotin: fully disrupted
